Like-named read-outs stand apart in the source and are kept apart here.
How the values were obtained:
HL60 cells = experiment: MTT cell viability assay, HL60 cells; assay type: cell-based; conditions: Homo sapiens, HL-60, HL60, 48 h, read-out: IC50 (μM) Mean ± SD
Description: (§1) All cell lines were purchased from the American Type Culture Collection (ATCC). The cell lines were growth at 37°C under 5% CO2 under humidified atmosphere. The cell lines K562 (derived from patients during the blast crisis phase of CML and IM sensitive), K562-R (IM resistance human CML), KmycBT15I (KBTI; IM resistant human CML, expressing the Bcr-Abl […] mutant), HEL (human erythroleukemia), HL60 (human acute myeloid leukemia), MOLM-13 (human acute myeloid leukemia), MV4.11 (human acute monocytic leukemia), HCT-15 (human colorectal adenocarcinoma), PC3 (human prostate cancer), MCF7 (human breast cancer), NCTC3749 (mouse lymphoma) as well as the MRC.5 cells (non-malignant human lung fibroblasts) were maintained in RPMI-1640 medium. The cell lines L1210 (mouse lymphocytic leukemia cells), Raw (mouse macrophage), HeLa (human epithelial cervix cancer), U-2 OS (human osteosarcoma), MG63 (human osteosarcoma) and T47D (human breast cancer adenocarcinoma) were maintained in DMEM. HEK293 cells stably expressing the GH receptor (HEKGHR) were maintained in DMEM-F12 medium. […]
(§2) Cells were seeded in 96-well plates (BD Falcon, France) at exponential growth density (5000–20000 cells/well) and treated with vehicle (0.05% DMSO) or compound (0.01 to 10 μM) for 48–72 h. […] Optical density was measured at 595 nm with the iMark Microplate Reader (BioRad, CA, USA).

Stat3 response element = experiment: Stat3 luciferase reporter gene assay in HeLa/Stat3-luc cells; assay type: cell-based; conditions: 1 h pretreatment then IL6 7 h
MV4.11 cells = experiment: MTT cell viability assay, MV4.11 cells; assay type: cell-based; conditions: Homo sapiens, MV4.11, 48 h, read-out: IC50 (μM) Mean ± SD
Description: as §1, §2

U-2 OS cells = experiment: MTT cell viability assay, U-2 OS cells; assay type: cell-based; conditions: Homo sapiens, U2OS, 48 h, read-out: IC50 (μM) Mean ± SD
Description: as §1, §2

MOLM.13 cells = experiment: MTT cell viability assay, MOLM.13 cells; assay type: cell-based; conditions: Homo sapiens, MOLM.13, 48 h, read-out: IC50 (μM) Mean ± SD
Description: as §1, §2

[1] = test system: IM resistant K562 cells (K562-R); experiment: Live-cell imaging (IncuCyte HD) of proliferation, IM resistant K562 cells; assay type: cell-based; conditions: Homo sapiens, 96 h, 4-day period, area under curve, read-out: IC50AUC, cytostatic effect on cell growth
Description: Kinetic measurements of cell proliferation and cytotoxicity were carried out by using the IncuCyte^TM HD real time imaging system (Essen BioScience, Hertfordshire, United Kingdom). After seeding in a polylysine-coated 96 well-plates, K562 cells were treated with different concentrations of compound. This IncuCyte™ microscope permits the acquisition of automated phase contrast images. Individual images are processed by an imbedded contrast-based confluence algorithm, which compute monolayer confluence for each image and at each time point. Multiple images are collected per well and averaged to provide a representative statistical measure of confluence.

K562 cells = experiment: MTT cell viability assay, K562 cells; assay type: cell-based, human; conditions: for IC50: Homo sapiens
Description: All cell lines were purchased from the American Type Culture Collection (ATCC). The cell lines were growth at 37°C under 5% CO2 under humidified atmosphere. The cell lines K562 (derived from patients during the blast crisis phase of CML and IM sensitive), K562-R (IM resistance human CML), KmycBT15I (KBTI; IM resistant human CML, expressing the Bcr-Abl […] mutant), HEL (human erythroleukemia), HL60 (human acute myeloid leukemia), MOLM-13 (human acute myeloid leukemia), MV4.11 (human acute monocytic leukemia), HCT-15 (human colorectal adenocarcinoma), PC3 (human prostate cancer), MCF7 (human breast cancer), NCTC3749 (mouse lymphoma) as well as the MRC.5 cells (non-malignant human lung fibroblasts) were maintained in RPMI-1640 medium. The cell lines L1210 (mouse lymphocytic leukemia cells), Raw (mouse macrophage), HeLa (human epithelial cervix cancer), U-2 OS (human osteosarcoma), MG63 (human osteosarcoma) and T47D (human breast cancer adenocarcinoma) were maintained in DMEM. HEK293 cells stably expressing the GH receptor (HEKGHR) were maintained in DMEM-F12 medium. The human breast cancer cell line SKBR3 was maintained in McCoy’s 5A medium. Cell culture medium was supplemented with 10% FBS, L-glutamine (2 mM) and PEST. In addition, the cell culture medium for T47D was supplemented with 1 mM NaPyr and 10 mM HEPES. Human peripheral blood mononuclear cells (PBMC) were isolated from heparin-anticoagulated blood of healthy volunteers by centrifugation with Ficoll-Paque Plus (Amersham Biosciences).
Cells were seeded in 96-well plates (BD Falcon, France) at exponential growth density (5000–20000 cells/well) and treated with vehicle (0.05% DMSO) or compound (0.01 to 10 μM) for 48–72 h. The mitochondrial metabolization of the tetrazolium salt 3-(4,5-methyltiazol-2yl-)-2,5diphenyl-tetrazolium bromide] (MTT) (Applichen, Germany) was used as indicator of cell viability. Optical density was measured at 595 nm with the iMark Microplate Reader (BioRad, CA, USA).

MRC.5 cells = experiment: MTT cell viability assay, MRC.5 cells; assay type: cell-based; conditions: Homo sapiens, MRC5, MRC.5 non-malignant lung fibroblasts, 48 h, read-out: IC50 (μM) Mean ± SD
Description: as §1, §2

HeLa cells = experiment: MTT cell viability assay, HeLa cells; assay type: cell-based; conditions: Homo sapiens, 48 h, read-out: IC50 (μM) Mean ± SD
Description: as §1, §2

Raw cells = experiment: MTT cell viability assay, Raw cells; assay type: cell-based; conditions: Mus musculus, 48 h, read-out: IC50 (μM) Mean ± SD
Description: as §1, §2

HEL cells = experiment: MTT cell viability assay, HEL cells; assay type: cell-based; conditions: Homo sapiens, 48 h, read-out: IC50 (μM) Mean ± SD
Description: as §1, §2

pTyr694-Stat5 (pYStat5) = experiment: Immunoblotting of constitutive pYStat5 in K562 cells; assay type: cell-based; conditions: Homo sapiens; K562, 3 μM CM363, 3 h
Description: Then, cells were rinsed with cold PBS-vanadate (1 mM) followed by preparation of whole lysis extract with RIPA (Pierce, Illinois, USA). Equal amounts of each sample were separated by SDS-PAGE and transfered onto nitrocellulose membranes. After being blocked with 1% BSA-1% Blotto (anti-phospho-antibodies) (Santa Cruz Biotechnology, CA, USA) or 5% blotto (anti-total-antibodies) (Santa Cruz Biotechnology, CA, USA) (both diluted in Tris buffered saline with 0.05% Tween 20), membranes were immunoblotted overnight at 4°C with dilution (1:1000) in the same buffer of blocking of primary phosphoprotein or total protein antibodies. […] To control for differences in loading and transfer efficiency across membranes, membranes were incubated with a monoclonal mouse anti-beta actin antibody (Santa Cruz Biotechnology, CA, USA). The phosphoprotein array analysis of K562 cells was carried out by using the Profiler Human Phospho-Kinase Array Kit ARY003B (R&D Systems, Minneapolis, MN, USA) according to the manufacturer`s instructions.

PMBC = experiment: MTT cell viability assay, PMBC; assay type: cell-based; conditions: Homo sapiens, 48 h, read-out: IC50 (μM) Mean ± SD
Description: as §1, §2

SKBR3 cells = experiment: MTT cell viability assay, SKBR3 cells; assay type: cell-based; conditions: Homo sapiens, SK-BR-3, SKBR3, 48 h, read-out: IC50 (μM) Mean ± SD
NCTC cells = experiment: MTT cell viability assay, NCTC cells; assay type: cell-based; conditions: Mus musculus, 48 h, read-out: IC50 (μM) Mean ± SD
Description: as §1, §2

MG63 cells = experiment: MTT cell viability assay, MG63 cells; assay type: cell-based; conditions: Homo sapiens, MG-63, MG63, 48 h, read-out: IC50 (μM) Mean ± SD
Description: as §1, §2

Question: Which IC50 (HL60 cells) does the source give for `N#Cc1ccc(C2C3=C(CCCC3=O)OC3=C2C(=O)c2ccccc2C3=O)cc1` (stereo not drawn) [CM363, 4-(1,6,11-trioxo-2,3,4,6,11,12-hexahydro-1H-benzo[b]xanthen-12-yl)benzonitrile] here?
Answer: 1.3 ± 0.6 µM

Question: And the “Stat3-dependent reporter gene (luciferase) activity” value (Stat3 response element)?
Answer: inhibit

Question: What about the IC50 (MV4.11 cells) of the same compound?
Answer: 1.2 ± 1.1 µM

Question: And the IC50 (U-2 OS cells)?
Answer: 4.3 ± 1.2 µM

Question: And the IC50 (MOLM.13 cells)?
Answer: 0.7 ± 1.1 µM

Question: And the IC50 [1]?
Answer: 500 ± 100 nM

Question: And the IC50 (K562 cells; IM sensitive K562, 72 h, MTT (Fig 10D), read-out: IC50, cell viability)?
Answer: ~0.6 µM

Question: What about the IC50 (K562 cells; K562, 48 h, MTT, read-out: IC50 (μM) Mean ± SD) of the same compound?
Answer: 0.7 ± 0.5 µM

Question: And the “lowest concentration at which inhibition was detected” value (K562 cells; IM sensitive K562, 72 h, MTT (Fig 10D))?
Answer: 0.3 µM

Question: And the IC50 (MRC.5 cells)?
Answer: 3.5 µM

Question: And the IC50 (HeLa cells)?
Answer: 4.8 ± 0.4 µM

Question: And the IC50 (Raw cells)?
Answer: 0.1 ± 0.2 µM

Question: What about the IC50 (HEL cells) of the same compound?
Answer: 1.3 ± 0.3 µM

Question: What about the inhibition at 3 µM (pTyr694-Stat5 (pYStat5)) of the same compound?
Answer: 20%

Question: And the IC50 (PMBC)?
Answer: > 5 µM

Question: And the IC50 (SKBR3 cells)?
Answer: 2.6 ± 0.8 µM

Question: And the IC50 (NCTC cells)?
Answer: 1.1 ± 0.7 µM

Question: What about the IC50 (MG63 cells) of the same compound?
Answer: 1.6 ± 0.9 µM

Reference: paper PMC5444695, “CM363, a novel naphthoquinone derivative which acts as multikinase modulator and overcomes imatinib resistance in chronic myelogenous leukemia” (Oncotarget, 2016)
